Laboratory results as given in patent publication US20210255193A1, “LYSINE REACTIVE PROBES AND USES THEREOF” (The Scripps Research Institute, priority 2017, published 2021).

What was measured:
Experiment in all cases: competitive isoTOP-ABPP
Type in all cases: binding
[1] = target: T1, NUDT22 Nucleoside diphosphate-linked moiety X motif 22 (Homo sapiens, UniProt Q9BRQ3); details: for isoTOP-ABPP ratio, lysine Q9BRQ3_K60: 50 uM_231_sol_in vitro
T1 construct: isoTOP-ABPP experiments performed in cell lysates (in vitro); endogenous in cells; host or cells: soluble proteome of human cancer cell lines (MDA-MB-231; Ramos and Jurkat also prepared)
T1 sequence (Q9BRQ3 1-303): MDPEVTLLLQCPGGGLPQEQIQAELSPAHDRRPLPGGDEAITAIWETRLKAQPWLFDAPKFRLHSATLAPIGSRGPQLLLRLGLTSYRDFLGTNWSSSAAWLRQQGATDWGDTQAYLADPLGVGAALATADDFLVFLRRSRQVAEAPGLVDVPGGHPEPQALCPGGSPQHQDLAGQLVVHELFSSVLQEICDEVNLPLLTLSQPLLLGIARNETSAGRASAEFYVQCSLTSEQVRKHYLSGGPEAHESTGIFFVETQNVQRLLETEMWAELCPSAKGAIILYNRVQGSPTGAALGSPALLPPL
How it was run: (§1)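 Readout: isotopic light/heavy MS1 peak-area ratio (R, DMSO heavy over compound light), median across peptides sharing a modified lysine. Lysate received fragment (activated esters 50 μM, guanidinylating agents 100 μM final) or DMSO, then 0.1 mM STP-alkyne probe for 1 h at ambient temperature.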

[2] = target: T2, CDK2 Cyclin-dependent kinase 2 (Homo sapiens, UniProt P24941); details: for isoTOP-ABPP ratio, lysine P24941_K33: 50 uM_231_sol_in vitro
T2 construct: isoTOP-ABPP experiments performed in cell lysates (in vitro); endogenous in cells; host or cells: soluble proteome of human cancer cell lines (MDA-MB-231; Ramos and Jurkat also prepared)
How it was run: as §1

[3] = target: T3, MRPL12 39S ribosomal protein L12, mitochondrial (Homo sapiens, UniProt P52815); details: for isoTOP-ABPP ratio, lysine P52815_K87: 50 uM_231_sol_in vitro, possible other lysine B4DLN1_K87, P52815_K91
T3 construct: isoTOP-ABPP experiments performed in cell lysates (in vitro); endogenous in cells; host or cells: soluble proteome of human cancer cell lines (MDA-MB-231, Ramos, Jurkat)
How it was run: as §1

[4] = target: T4, NT5DC1 5-nucleotidase domain-containing protein 1 (Homo sapiens, UniProt Q5TFE4); details: for isoTOP-ABPP ratio, lysine Q5TFE4_K123: 50 uM_231_sol_in vitro
T4 construct: isoTOP-ABPP experiments performed in cell lysates (in vitro); endogenous in cells; host or cells: soluble proteome of human cancer cell lines (MDA-MB-231; Ramos and Jurkat also prepared)
T4 sequence (Q5TFE4 1-455): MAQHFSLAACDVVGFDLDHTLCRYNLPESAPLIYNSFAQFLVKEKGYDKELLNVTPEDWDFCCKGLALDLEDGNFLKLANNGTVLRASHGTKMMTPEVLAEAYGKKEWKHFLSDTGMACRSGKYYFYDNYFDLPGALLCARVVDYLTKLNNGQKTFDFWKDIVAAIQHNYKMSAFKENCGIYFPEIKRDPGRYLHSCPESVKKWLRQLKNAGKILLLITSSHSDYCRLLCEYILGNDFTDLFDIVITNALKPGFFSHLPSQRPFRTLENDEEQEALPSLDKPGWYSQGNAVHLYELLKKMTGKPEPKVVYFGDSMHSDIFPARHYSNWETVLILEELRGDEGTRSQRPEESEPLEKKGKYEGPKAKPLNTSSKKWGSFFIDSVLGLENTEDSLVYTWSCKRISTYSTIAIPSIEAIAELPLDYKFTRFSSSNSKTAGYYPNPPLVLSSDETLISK
How it was run: as §1

| SMILES | isoTOP-ABPP ratio (R) at liganded lysine Q9BRQ3_K60 ([1]; 50 uM, in vitro, sol, 231) | isoTOP-ABPP ratio (R) at liganded lysine P24941_K33 ([2]; 50 uM, in vitro, sol, 231) | isoTOP-ABPP ratio (R) at liganded lysine P52815_K87 ([3]; 50 uM, in vitro, sol, 231) | isoTOP-ABPP ratio (R) at liganded lysine Q5TFE4_K123 ([4]; 50 uM, in vitro, sol, 231) | isoTOP-ABPP ratio, lysine Q9BRQ3_K60 [1] | isoTOP-ABPP ratio, lysine P24941_K33 [2] | isoTOP-ABPP ratio, lysine P52815_K87 [3] | isoTOP-ABPP ratio, lysine Q5TFE4_K123 [4] |
| --- | --- | --- | --- | --- | --- | --- | --- | --- |
| O=C(Oc1ccc([N+](=O)[O-])cc1[N+](=O)[O-])C(c1ccccc1)(c1ccccc1)c1ccccc1 [fragment 42, 2,4-Dinitrophenyl 2,2,2-triphenylacetate] | 0.8 | 0.9 | 1.0 | 0.6 | – | – | – | – |
| O=C(CCc1ccc2c(c1)OCO2)Oc1ccc([N+](=O)[O-])cc1[N+](=O)[O-] [fragment 45, 2,4-Dinitrophenyl 3-(benzo[d][1,3]dioxol-5-yl)propanoate] | – | – | – | – | 1.7 | 4.6 | 1.8 | 2.1 |
| O=C(ON1C(=O)CCC1=O)c1cc(C(F)(F)F)cc(C(F)(F)F)c1 [fragment 46, 3,5-Bis(trifluoromethyl)benzoic acid NHS ester] | – | – | – | – | 0.9 | 0.9 | 0.6 | 20.0 |
